Data as given in patent US12583938B2, “Protein biomarker and uses thereof” (Daiichi Sankyo Co., Ltd., priority 2013, dated 2026).
“Also recorded” adds a separate entry of the source. Where two headings read alike, the source gives them in different places.

Key:
[1] = monotherapy Phase 1 study of patritumab; format: in vivo
Description: A higher maintenance dose level of 18 mg/kg was also included to accommodate the possible effect of reduced tumor tissue penetration in the clinical setting relative to animal models.

Stage IIIb/IV NSCLC [2] = conditions: Phase 1b, 150 mg erlotinib daily + 18 mg/kg patritumab every 3 weeks, 7 subjects
Description: (§1) In both portions of the study, subjects received 150 mg of erlotinib orally once daily. […] Tumors were to be assessed every 6 weeks (±3 days) up to the first 24 weeks of the study, then every 12 weeks (±7 days) independent of treatment cycle.

Stage IIIb/IV NSCLC [3] = conditions: for OS: Subjects (%) with events / OS: Subjects (%) without events (censored) / PFS: Subjects (%) with events / PFS: Subjects (%) without events (censored) / Progression-Free Survival, Time to event, Median / Overall Survival, Time to event, Median: Full Analysis Set; for Progression-Free Survival, Time to event, Median / Overall Survival, Time to event, Median: Kaplan-Meier Estimate; for Overall Survival, Time to event, Median: preliminary; for On-Study Death / Primary Cause of On-Study Death: Adverse Event / Primary Cause of On-Study Death: Disease Progression / Primary Reason for Discontinuing Study Treatment: Adverse Event / Primary Reason for Discontinuing Study Treatment: Death / Primary Reason for Discontinuing Study Treatment: Progressive Disease (Radiographic Progression): Enrolled/Randomized Analysis Set; for HR for PFS (pooled dose vs placebo): soluble HRG high group, + erlotinib
Description: as §1
An “HRG high” subject was defined as a subject with observed soluble HRG concentration of higher than 980 pg/mL, the Quartile 3 of the sample set. Soluble HRC concentration was measured by the improved ELISA method disclosed herein.
At the point of primary analysis, the treatment assignment for all subjects was unblinded to designated study personnel for analysis after data were reconciled and cleaned, and a snapshot of the clean database was created. To minimize potential bias, individual treatment assignment was not divulged to subjects or Investigators until study closure.
All efficacy analyses were performed on the full analysis set, which includes all subjects in the randomized analysis set who received at least one dose of randomized study medication. The primary efficacy endpoint was PFS. PFS is defined as the time from the date of randomization to the earlier of the dates of the first objective documentation of radiographic disease progression or death due to any cause. A subject who was alive with no objective documentation of (radiographic) disease progression by the data cut-off date was to be censored at the date of the last evaluable tumor assessment. The key secondary efficacy endpoint, overall survival, was defined as the time from the date of randomization to death due to any cause and was analyzed in the same manner as the primary efficacy endpoint PFS.
Kaplan-Meier curves were generated for PFS and used to calculate medians and 95% CIs for each treatment group.
The stratification factors included histology (Adenocarcinoma vs Non-Adenocarcinoma) and best response to prior therapy (CR/PR/SD vs PD). […] Cox's proportional hazards model with the same stratification factors used for the stratified log-rank test.
Unless otherwise indicated, tog-rank p-values and HRs for PFS and OS were based on the primary analysis adjusted for the stratification factors at randomization as described above.

A375 = test: human cancer xenograft in mice, tumor growth inhibition; format: in vivo; conditions: Melanoma, HRG (WB) −
Description: (§2) The HRG biomarker was identified by analysing the anti-tumor activity of the anti-HER3 antibody U3-1287 on various human cancer xenografts in vivo and analysis of the expression of HRG of these cell lines in vitro. Human tumor cell lines of various indications were grown as xenografts in mice and treated with the anti-HER3 antibody U3-1287 for several weeks. Inhibition of tumor growth was analysed by comparing the tumor volumes of control mice and mice treated with U3-1287. Human tumor cell lines were grown in vitro and analysed for HRG protein expression by Western blotting.

A549 = test: as above; format: in vivo; conditions: NSCLC, HRG (WB) +
Description: as §2

BT474 = test: as above; format: in vivo; conditions: BC FISH + ve, HRG (WB) −
Description: as §2

BxPC3 = test: as above; format: in vivo; conditions: Pancreas, HRG (WB) +
Description: as §2

Calu-3 = test: as above; format: in vivo; conditions: Calu-3 xenograft, NSCLC, HRG (WB) +
Description: as §2

FaDu = test: as above; format: in vivo; conditions: Head&Neck, HRG (WB) +
Description: as §2

HCC 1569 = test: as above; format: in vivo; conditions: HCC 1569 xenograft, BC FISH + ve, HRG (WB) −
Description: as §2

HT-144 = test: as above; format: in vivo; conditions: HT-144 xenograft, Melanoma, HRG (WB) −
Description: as §2

HT-29 = test: as above; format: in vivo; conditions: HT-29 xenograft, Colon, HRG (WB) −
Description: as §2

MCF-7 = test: as above; format: in vivo; conditions: MCF-7 xenograft, BC FISH + ve, HRG (WB) −
Description: as §2

MDA-MB453 = test: as above; format: in vivo; conditions: BC FISH + ve, HRG (WB) −
Description: as §2

MKN-45 = test: as above; format: in vivo; conditions: MKN-45 xenograft, Gastric, HRG (WB) −
Description: as §2

NC-H1975 = test: as above; format: in vivo; conditions: NSCLC, HRG (WB) +
Description: as §2

NCI-H441 = test: as above; format: in vivo; conditions: NSCLC, HRG (WB) −
Description: as §2

Sum225 = test: as above; format: in vivo; conditions: BC FISH + ve, HRG (WB) −
Description: as §2

ZR75-1 = test: as above; format: in vivo; conditions: ZR75-1 xenograft, BC FISH + ve, HRG (WB) −
Description: as §2

[4] = system: HER3 phosphorylation in A549 cells; test: in vitro reduction of phospho-HER3 and phospho-AKT levels by Western blotting; format: cell-based, human; conditions: A549, endogenously express heregulin; FIG. 9
Description: (§3) FIG. 9 depicts efficacy determined in vitro by measuring reduction of phospho-HER3 and phospho-AKT levels by Western blotting.
(§4) U3-1287 efficacy was determined in vitro by measuring reduction of phospho-HER3 and phospho-AKT levels.

[5] = system: HER3 phosphorylation in CaOV3 cells; test: as above; format: cell-based, human; conditions: CaOV3, no basal HER3 activation, stimulated with exogenous heregulin; FIG. 9
Description: as §3, §4

[6] = system: HER3 phosphorylation in BT474 cells; test: in vitro HER3 phosphorylation by Western blotting; format: cell-based, human; conditions: FIG. 10
Description: FIG. 10 depicts Western blots showing that U3-1287 can block […] basal HER3 phosphorylation.
as §4

[7] = 9 mg/kg patritumab + erlotinib (N = 71)
[8] = 9 mg/kg patritumab + erlotinib (N = 72)
[9] = 18 mg/kg patritumab + erlotinib (N = 70)
[10] = 18 mg/kg patritumab + erlotinib (N = 72)

patritumab
maximum tolerated dose ([1]; Phase 1 study): not reached | dose limiting toxicity ([1]; in vivo): lack of dose limiting toxicity | AEs grade≥3, number of subjects (Stage IIIb/IV NSCLC [2]): 2 subjects | patritumab-related AE reported in ≥2 subjects (Stage IIIb/IV NSCLC [2]): decreased appetite | relation of grade≥3 AEs to patritumab (Stage IIIb/IV NSCLC [2]): none were related to patritumab | tumor response (Stage IIIb/IV NSCLC [2]): No response was recorded | DLTs (Stage IIIb/IV NSCLC [2]; 18 mg/kg): no DLTs were seen; also recorded: No DLTs were reported | subjects with serious AEs (Stage IIIb/IV NSCLC [2]; four serious AEs): Three | OS: Subjects (%) with events (Stage IIIb/IV NSCLC [3]; [7]): 46 (64.8%) subjects (%) | OS: Subjects (%) without events (censored) (Stage IIIb/IV NSCLC [3]; [7]): 25 (35.2%) subjects (%) | PFS: Subjects (%) with events (Stage IIIb/IV NSCLC [3]; [7]): 52 (73.2%) subjects (%) | PFS: Subjects (%) without events (censored) (Stage IIIb/IV NSCLC [3]; [7]): 19 (26.8%) subjects (%) | Progression-Free Survival, Time to event, Median (Stage IIIb/IV NSCLC [3]; [7]): 2.5 months | Overall Survival, Time to event, Median (Stage IIIb/IV NSCLC [3]; [7]): 6.3 months | On-Study Death (Stage IIIb/IV NSCLC [3]; [8]): 9 subjects | Primary Cause of On-Study Death: Adverse Event (Stage IIIb/IV NSCLC [3]; [8]): 4 subjects | Primary Cause of On-Study Death: Disease Progression (Stage IIIb/IV NSCLC [3]; [8]): 4 subjects | Primary Reason for Discontinuing Study Treatment: Adverse Event (Stage IIIb/IV NSCLC [3]; [8]): 6 subjects | Primary Reason for Discontinuing Study Treatment: Death (Stage IIIb/IV NSCLC [3]; [8]): 2 subjects | Primary Reason for Discontinuing Study Treatment: Progressive Disease (Radiographic Progression) (Stage IIIb/IV NSCLC [3]; [8]): 45 subjects | OS: Subjects (%) with events (Stage IIIb/IV NSCLC [3]; [9]): 54 (77.1%) subjects (%) | OS: Subjects (%) without events (censored) (Stage IIIb/IV NSCLC [3]; [9]): 16 (22.9%) subjects (%) | PFS: Subjects (%) with events (Stage IIIb/IV NSCLC [3]; [9]): 58 (82.9%) subjects (%) | PFS: Subjects (%) without events (censored) (Stage IIIb/IV NSCLC [3]; [9]): 12 (17.1%) subjects (%) | Progression-Free Survival, Time to event, Median (Stage IIIb/IV NSCLC [3]; [9]): 1.4 months | Overall Survival, Time to event, Median (Stage IIIb/IV NSCLC [3]; [9]): 5.3 months | On-Study Death (Stage IIIb/IV NSCLC [3]; [10]): 20 subjects | Primary Cause of On-Study Death: Adverse Event (Stage IIIb/IV NSCLC [3]; [10]): 11 subjects | Primary Cause of On-Study Death: Disease Progression (Stage IIIb/IV NSCLC [3]; [10]): 8 subjects | Primary Reason for Discontinuing Study Treatment: Adverse Event (Stage IIIb/IV NSCLC [3]; [10]): 7 subjects | Primary Reason for Discontinuing Study Treatment: Death (Stage IIIb/IV NSCLC [3]; [10]): 11 subjects | Primary Reason for Discontinuing Study Treatment: Progressive Disease (Radiographic Progression) (Stage IIIb/IV NSCLC [3]; [10]): 42 subjects | number of subjects with the response being CR/PR (Stage IIIb/IV NSCLC [3]; high-dose patritumab (18 mg/kg every 3 weeks) + erlotinib): 5 (7.1%) subjects (%) | number of subjects with the response being CR/PR (Stage IIIb/IV NSCLC [3]; low-dose patritumab (18 mg/kg loading, 9 mg/kg maintenance every 3 weeks) + erlotinib): 9 (12.9%) subjects (%) | improvement in PFS or OS (Stage IIIb/IV NSCLC [3]; patritumab with erlotinib compared to erlotinib plus placebo, full analysis set (unselected ITT population)): no significant improvement | HR for PFS (pooled dose vs placebo) (Stage IIIb/IV NSCLC [3]; HRG protein concentration cut-off 0 (median) pg/mL, n 66): 0.58 | HR for PFS (pooled dose vs placebo) (Stage IIIb/IV NSCLC [3]; HRG protein concentration cut-off 1622.5 pg/mL, n 39): 0.31 | HR for PFS (pooled dose vs placebo) (Stage IIIb/IV NSCLC [3]; HRG protein concentration cut-off 2000 pg/mL, n 34): 0.28 | HR for PFS (pooled dose vs placebo) (Stage IIIb/IV NSCLC [3]; HRG protein concentration cut-off 3000 pg/mL, n 30): 0.24 | HR for PFS (pooled dose vs placebo) (Stage IIIb/IV NSCLC [3]; HRG protein concentration cut-off 4000 pg/mL, n 27): 0.26 | HR for PFS (pooled dose vs placebo) (Stage IIIb/IV NSCLC [3]; HRG protein concentration cut-off 5000 pg/mL, n 23): 0.40 | HR for PFS (pooled dose vs placebo) (Stage IIIb/IV NSCLC [3]; HRG protein concentration cut-off 980 (Q3) pg/mL, n 46): 0.41 | treatment difference in PFS and OS (Stage IIIb/IV NSCLC [3]; subjects with tumors expressing low HRG at a protein level (<980 pg/mL), pooled patritumab + erlotinib vs placebo + erlotinib): no clear treatment difference | In vivo efficacy (SA) (A375): No | In vivo efficacy (SA) (A549): Yes | In vivo efficacy (SA) (BT474): No | In vivo efficacy (SA) (BxPC3): Yes | In vivo efficacy (SA) (Calu-3): Yes | In vivo efficacy (SA) (FaDu): Yes | In vivo efficacy (SA) (HCC 1569): No | In vivo efficacy (SA) (HT-144): No | In vivo efficacy (SA) (HT-29): Yes | In vivo efficacy (SA) (MCF-7): No | In vivo efficacy (SA) (MDA-MB453): No | In vivo efficacy (SA) (MKN-45): Yes | In vivo efficacy (SA) (NC-H1975): Yes | In vivo efficacy (SA) (NCI-H441): No | In vivo efficacy (SA) (Sum225): No | In vivo efficacy (SA) (ZR75-1): No | Basal HER3 phosphorylation [4]: could be blocked | HER3 phosphorylation [5]: could be blocked | efficacy on HER3 phosphorylation ([6]; BT474+HRG (exogenously added heregulin)): could be overcome by exogenously added heregulin | efficacy on basal HER3 phosphorylation ([6]; BT474 basal, do not express heregulin): no efficacy | ligand-dependent basal HER3 phosphorylation ([6]; Western blots): can block
